According to ChEMBL document CHEMBL3112445, “Design and synthesis of prostate cancer antigen-1 (PCA-1/ALKBH3) inhibitors as anti-prostate cancer drugs” (Bioorg Med Chem Lett, 2014):
pIC50: −log10 of the molar value. Active and inactive are the calls of the source. The calls are words filed in the database; no cut-off is given here.

Assays:
[1] = biological target: T1, Alpha-ketoglutarate-dependent dioxygenase alkB homolog 3 (Homo sapiens, UniProt Q96Q83); assay: Inhibition of demethylase activity of PCA-1 (unknown origin) using 3-methyl cytosine oligo DNA as substrate after 1 hr by RT-PCR analysis
T1 sequence (Q96Q83 whole entry): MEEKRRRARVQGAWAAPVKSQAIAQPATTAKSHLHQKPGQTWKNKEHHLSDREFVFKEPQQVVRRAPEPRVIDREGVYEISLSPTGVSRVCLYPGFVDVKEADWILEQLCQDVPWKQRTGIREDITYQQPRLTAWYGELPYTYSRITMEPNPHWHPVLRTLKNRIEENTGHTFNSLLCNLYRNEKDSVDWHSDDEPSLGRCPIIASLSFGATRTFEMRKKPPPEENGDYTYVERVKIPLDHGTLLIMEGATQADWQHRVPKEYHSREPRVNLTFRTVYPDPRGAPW

[2] = biological target: T2, Alpha-ketoglutarate-dependent dioxygenase alkB homolog 3 (Homo sapiens) (UniProt Q96Q83); assay: Inhibition of demethylase activity of PCA-1 (unknown origin) using 3-methyl cytosine oligo DNA as […] after 1 hr by RT-PCR analysis
T2 sequence (whole entry): T1 sequence (Q96Q83 whole entry)

[3] = tested on: DU-145; assay: Antiproliferative activity against human DU145 cells at 10 uM after 48 hrs by 2-D dish-based WST-assay; assay type: functional; conditions: DU-145, 48 h
[4] = tested on: DU-145; assay: Antiproliferative activity against human DU145 cells at 1 uM after 48 hrs by 2-D dish-based WST-assay; assay type: functional; conditions: DU-145, 48 h
[5] = tested on: DU-145; assay: Antiproliferative activity against human DU145 cells at 1 uM after 7 days by 3-D agar-based WST-assay; assay type: functional; conditions: DU-145, 168 h
[6] = tested on: DU-145; assay: Antiproliferative activity against human DU145 cells at 10 uM after 7 days by 3-D agar-based WST-assay; assay type: functional; conditions: DU-145, 168 h
[7] = Cmax in Sprague-Dawley rat serum at 32 mg/kg, po; assay type: ADME, organism-based; design: dose 32 mg/kg, route oral
[8] = Oral bioavailability in Sprague-Dawley rat at 32 mg/kg; assay type: ADME, organism-based; conditions: in vivo
[9] = Initial plasma concentration in Sprague-Dawley rat serum at 0.5 mg/kg, iv; assay type: ADME, organism-based; design: dose 0.5 mg/kg, route intravenous
[10] = AUC (0 to 24 hrs) in Sprague-Dawley rat serum at 0.5 mg/kg, iv; assay type: ADME, organism-based; design: time < 24 hr, dose 0.5 mg/kg, route intravenous
[11] = tested on: Mus musculus; assay: Toxicity in human DU145 cells xenografted mouse model assessed as body weight at 32 mg/kg, sc administered daily for 6 days; assay type: organism-based, DU-145; design: dose 32 mg/kg, route subcutaneous; conditions: in vivo, 144 h
[12] = AUC (0 to 24 hrs) in Sprague-Dawley rat serum at 32 mg/kg, po; assay type: ADME, organism-based; design: time < 24 hr, dose 32 mg/kg, route oral
[13] = tested on: DU-145; assay: Anticancer activity against human DU145 cells xenografted in mouse assessed as tumor growth inhibition at 32 mg/kg, sc administered daily for 6 days; assay type: functional, organism-based; design: dose 32 mg/kg
[14] = biological target: T2, Alpha-ketoglutarate-dependent dioxygenase alkB homolog 3 (Homo sapiens); conditions: 10 uM
Description: Inhibition of PCA-1 (unknown origin) at 10 uM

[15] = Drug level in Sprague-Dawley rat serum at 32 mg/kg, po after 1 hr; assay type: ADME, organism-based; design: dose 32 mg/kg, route oral
[16] = tested on: Mus musculus; assay: Toxicity in human DU145 cells xenografted mouse model assessed as abnormal behavior at 32 mg/kg, sc administered daily for 6 days; assay type: organism-based, DU-145; design: dose 32 mg/kg, route subcutaneous; conditions: in vivo, 144 h
[17] = tested on: Mus musculus; assay: Toxicity in human DU145 cells xenografted mouse model assessed as abnormality in organs at 32 mg/kg, sc administered daily for 6 days; assay type: organism-based, DU-145; design: dose 32 mg/kg, route subcutaneous; conditions: in vivo, 144 h

Structure (SMILES)	pIC50 [1]	also measured
Cc1[nH]n(-c2nc3ccccc3[nH]2)c(=O)c1Cc1ccc(C(F)(F)F)cc1	6.26	–
Cc1[nH]n(-c2nc3ccccc3o2)c(=O)c1C	< 5.00	inhibition [2]: 0%
Cc1[nH]n(-c2ccccn2)c(=O)c1C(=O)Nc1ccccc1	5.77	inhibition at 10 µM [3]: 25%
Oc1c(-c2ccccc2)c(-c2ccccc2)nn1-c1nc2cc(Cl)ccc2[nH]1	5.70	–
Cc1ccc2nc(-n3[nH]c(C)c(Cc4ccc(-c5ccccc5)cc4)c3=O)[nH]c2c1	5.28	–
O=c1c(Cc2ccccc2)c(-c2ccccc2)[nH]n1-c1nc2ccccc2[nH]1	< 5.00	inhibition [2]: 2%
Cc1[nH]n(-c2nc3ccccc3[nH]2)c(=O)c1CC(=O)O	4.82	–
Cc1[nH]n(-c2nc3cc(-c4ccc(Cl)cc4)ccc3[nH]2)c(=O)c1Cc1ccccc1	5.82	inhibition at 10 µM [3]: 63%; inhibition at 1 µM [4]: 70%; inhibition at 1 µM [5]: 91%; inhibition at 10 µM [6]: 100%
Cc1ccc2[nH]c(-n3[nH]c(-c4ccccc4)c(C)c3=O)nc2c1	5.48	–
O=c1cc(-c2ccccc2)[nH]n1-c1nc2ccccc2[nH]1	5.14	–
Cc1[nH]n(-c2nc3ccccc3[nH]2)c(=O)c1Cc1ccc(Cl)cc1Cl	< 5.00	inhibition [2]: 11%
Cc1[nH]n(-c2nc3ccccc3[nH]2)c(=O)c1Cc1ccc2ccccc2c1	6.12	–
Cc1[nH]n(-c2nc3cc(-c4ccccc4)ccc3[nH]2)c(=O)c1Cc1ccccc1	6.09	–
Cc1ccc2nc(-n3[nH]c(C)c(Cc4ccccc4)c3=O)[nH]c2c1	6.17	Cmax [7]: 350 ng/mL; bioavailability [8]: 7.2%; C0 [9]: 430 ng/mL; AUC(0-t) at 24 h [10]: 150 ng·h/mL; Activity [11]: Non-toxic; AUC(0-t) at 24 h [12]: 690 ng·h/mL
Cc1[nH]n(-c2nc3ccccc3s2)c(=O)c1C	< 5.00	inhibition [2]: -3%
Cc1ccc2nc(-n3[nH]c(C)c(Cc4ccc(C(F)(F)F)cc4)c3=O)[nH]c2c1	6.24	–
Cc1ccc2nc(-n3[nH]c(C)c(Cc4ccccc4)c3=O)[nH]c2c1C	< 5.00	–
Cc1[nH]n(-c2nc3c(C)cccc3[nH]2)c(=O)c1C	< 5.00	–
Cc1[nH]n(-c2nc3ccccc3[nH]2)c(=O)c1Cc1ccc(C(C)(C)C)cc1	5.39	–
Cc1ccc2[nH]c(-n3[nH]c(C)c(Cc4ccccc4)c3=O)nc2c1	–	inhibition at 10 µM [3]: 54%; inhibition at 1 µM [4]: 35%; TGI [13]: Active; inhibition at 1 µM [5]: 34%; inhibition at 10 µM [6]: 81%
COC(=O)Cc1c(C)[nH]n(-c2nc3ccccc3[nH]2)c1=O	5.37	–
Cc1ccc2[nH]c(-n3[nH]c(C)c(Cc4ccc(F)cc4)c3=O)nc2c1	6.11	–
Cc1[nH]n(-c2nc3ccccc3[nH]2)c(=O)c1Cc1ccc(Cl)c(Cl)c1	5.51	–
Cc1ccc(-c2ccc3[nH]c(-n4[nH]c(C)c(Cc5ccccc5)c4=O)nc3c2)cc1	5.68	–
Cc1[nH]n(-c2ncccn2)c(=O)c1C	< 5.00	inhibition [2]: -4%

Structure (SMILES)	pIC50 [1]	also measured
Cc1nn(-c2nc3ccccc3[nH]2)c(O)c1Cc1ccccc1	6.32	inhibition at 10 µM [3]: 47%; inhibition at 1 µM [4]: 42%; inhibition at 1 µM [5]: 42%; inhibition at 10 µM [6]: 90%
Cc1[nH]n(-c2ccccn2)c(=O)c1C	< 5.00	inhibition [2]: -4%
Cc1[nH]n(-c2nc3cc(Br)ccc3[nH]2)c(=O)c1Cc1ccccc1	6.31	–
Cc1ccc2[nH]c(-n3[nH]c(C)c(Cc4ccc(Cl)c(Cl)c4)c3=O)nc2c1	6.14	–
Cc1[nH]n(-c2nc3ccccc3[nH]2)c(=O)c1C	5.40	inhibition at 10 µM [3]: 0.8%; inhibition [14]: 76%
Cc1c(-c2ccccc2)[nH]n(-c2nc3ccccc3[nH]2)c1=O	< 5.00	–
Cc1[nH]n(-c2nc3ccccc3n2C)c(=O)c1C	< 5.00	inhibition [2]: 21%
Cc1cc(O)n(-c2nc3ccccc3[nH]2)n1	5.44	–
Cc1ccc2[nH]c(-n3[nH]c(C)c(Cc4ccccc4Cl)c3=O)nc2c1	6.04	–
Cc1[nH]n(-c2nc3ccccc3[nH]2)c(=O)c1Cc1ccc(-c2ccccc2)cc1	6.14	–
Cc1[nH]n(-c2nc3ccccc3[nH]2)c(=O)c1Cc1ccccc1Cl	< 5.00	–
Cc1[nH]n(-c2nc3ccccc3[nH]2)c(=O)c1Cc1cccc(Cl)c1	6.27	–
Cc1ccc2[nH]c(-n3[nH]c(C)c(C)c3=O)nc2c1	5.59	inhibition at 10 µM [3]: 19%; inhibition at 1 µM [4]: -11%; concentration at 1 h [15]: 1080 ng/mL; inhibition at 1 µM [5]: 3.8%; inhibition at 10 µM [6]: 69%
Cc1[nH]n(-c2ccccc2)c(=O)c1C	< 5.00	inhibition [2]: 20%
Cc1ccc2[nH]c(-n3[nH]c(C)c(Cc4ccc(Cl)cc4)c3=O)nc2c1	6.12	inhibition at 10 µM [3]: 46%; inhibition at 1 µM [4]: -1%; inhibition at 1 µM [5]: 2.8%; inhibition at 10 µM [6]: 90%
Cc1[nH]n(-c2nc3cc(Cl)ccc3[nH]2)c(=O)c1Cc1ccccc1	5.35	inhibition at 1 µM [4]: 86%; inhibition at 1 µM [5]: 84%; inhibition at 10 µM [6]: 87%
Cc1[nH]n(-c2nc3ccccc3[nH]2)c(=O)c1Cc1ccc(Cl)cc1	< 5.00	inhibition [2]: 46%
Cc1[nH]n(-c2nc3cc(C(F)(F)F)ccc3[nH]2)c(=O)c1Cc1ccccc1	6.21	inhibition at 10 µM [3]: 84%; inhibition at 1 µM [4]: 78%; inhibition at 1 µM [5]: 90%; inhibition at 10 µM [6]: 92%
Cc1ccc2[nH]c(-n3[nH]c(C)c(Cc4ccc(C(C)(C)C)cc4)c3=O)nc2c1	5.43	–
Cc1[nH]n(-c2nc3c(C)cccc3[nH]2)c(=O)c1Cc1ccccc1	5.23	–
COc1ccc(Cc2c(C)[nH]n(-c3nc4ccccc4[nH]3)c2=O)cc1	6.20	Activity [16]: Non-toxic; Activity [17]: Non-toxic
Cc1ccc2[nH]c(-n3nc(-c4ccccc4)c(-c4ccccc4)c3O)nc2c1	5.24	–
COc1ccc(Cc2c(C)[nH]n(-c3nc4ccc(C)cc4[nH]3)c2=O)cc1	6.17	–
Cc1[nH]n(-c2nc3ccc(C(C)(C)C)cc3[nH]2)c(=O)c1Cc1ccccc1	6.19	–
Cc1[nH]n(-c2nc3ccccc3[nH]2)c(=O)c1Cc1ccc(F)cc1	6.22	–
